Laboratory results reported in paper PMC6918103 (Advanced Science, 2019).
“And” between values parts separate entries of the source, which are not always exact repeats. Equal values may be shown once.

How the values were obtained:
[1] = Hepatic and renal function analysis; format: in vivo, female BALB/c mice; conditions: mice after treatment
Excerpt: Gastrointestinal toxicity evaluation
Nine female BALB/c mice were divided into four groups (n=3 each group) and were […]
saline (control) every day. Five days later, the mice were sacrificed and their blood was obtained for hepatic and renal function analysis. The stomach, duodenum, jejunum and ileum were taken and fixed in 4% paraformaldehyde solution for hematoxylin and eosin (H&E) staining. The histological sections were imaged using an optical microscope.
Student's t-test was used to determine significant differences between the two groups.
When p<0.05, there was a significant difference, and very significant differences between two groups were defined as p<0.01.

[2] = Partition into mixed micellar phase and mixed micelle size after 3 h digestion; format: in vitro ADME; conditions: Sprague-Dawley, rat
Procedure: (§1) Simulated intestinal digestion
(§2) Bile-pancreatic juice was obtained from the common bile duct of anesthetized rats, which contained bile as well as pancreatic juice as previously described. Then, 20 µL of emulsion was incubated with 180 µL bile-pancreatic juice at 37°C with gentle shaking to simulate intestinal digestion. Samples (20 µL) of the incubation solution were taken at regular intervals (0, 0.08, 0.25, 0.5, 1, 2, 3 h) and added to 180 µL of ACN to analyze the concentration of the TG prodrugs and the monoglyceride derivatives of DTX (MG prodrugs) by HPLC. The solubility of prodrugs in aqueous phase were also determined. […] 20 µL of aqueous phase were collected and the concentration of the TG prodrugs and MG prodrugs were determined as above. The fraction of TG-like prodrugs and MG-like prodrugs partitioning in mix micelle phase (aqueous phase) relative to those in raw digesta were calculated to evaluate the solubility of the prodrugs. At the same time, the particle sizes of mix micelles were measured by Malvern laser particle size analyzer. […]
(§3) In order to study the stability of linkers in circulation, TG prodrugs were incubated with rat plasma supplemented with lipoprotein lipase (LPL, 10000 IU/mL) in which TG prodrugs can be hydrolyzed into MG prodrugs rapidly. […] The concentration of TG, MG prodrugs and free DTX were determined by HPLC. […]

[3] = Simulated intestinal digestion in bile-pancreatic juice (TG prodrug remaining, MG prodrug generated); format: in vitro ADME, rat
Procedure: as §1, §2, §3

[4] = Stability of prodrugs in rat plasma supplemented with lipoprotein lipase; format: in vitro ADME; conditions: 12 h
[5] = In situ recirculating intestinal perfusion (absorption rate Ka, with or without orlistat); conditions: rats
[6] = test system: 4T1 xenograft tumors; assay: In vivo antitumor effect (tumor volume, tumor burden, body weight, H&E of organs); set-up: species or system female BALB/c mice; conditions: 4T1 tumor bearing mice; po, 20 mg kg^−1 equivalent to DTX, every alternate day for 10 days
Procedure: F௥௘௟ = AUCா௠௨௟௦௜௢௡ ∙Doseௌ௢௟/AUCௌ௢௟/Doseா௠௨௟௦௜௢௡
Fab = AUCp.o. ∙ Dosei.v./AUCi.v./Dosep.o.
Absorption mechanism and biodistribution of TG-mimetic prodrug
The PPa-S-S-TG was synthesized as scheme S2, the PPa-S-S-TG emulsion and its simulated intestinal digestion were implemented in accordance with the step of the TG-like DTX prodrug emulsion. Its reduction-responsibility was verified by incubation PBS with or without DTT. In brief, phosphate buffer solution (pH 7.4) (containing 30% ethanol (v/v)) with or without dithiothreitol (DTT) was used as the release media. The concentration of DTT was fixed at 10 mM. Then, 200 µL of the emulsions (PPa-S-S-TG) was incubated with 20 mL release media (reduction-sensitive or reduction-insensitive) at 37°C. At 0, 3, 12 h, 40 µL samples were taken and added to 160 µL of ACN for analysis. The content change of the PPa-S-S-TG was monitored by HPLC.
The PPa-S-S-TG and the PPa solution (10 mg/kg equivalent to PPa) were administrated to female BALB/c mice bearing the 4T1 cell line. At scheduled times the mice were sacrificed and the GITs, MLNs and tumors were taken out for fluorescence imaging by the Caliper IVIS ® Spectrum in vivo Imaging System. The intestinal tissue of PPa-S-S-TG group was then washed, fixed with 4% paraformaldehyde for 2 h, and dehydrated in 30% sucrose overnight. […]
was used as a control. […] Body weight and tumor volume were recorded every day. […]

[7] = test system: 4T1 cells; assay: MTT cytotoxicity in 4T1 cells; format: cell-based
[8] = test system: KB cells; assay: MTT cytotoxicity in KB cells; format: cell-based

Row | SMILES | ALT ([1]; AVERAGE of 3 animals) [U/L] | AST ([1]; AVERAGE of 3 animals) [U/L] | BUN ([1]; AVERAGE of 3 animals) [mmol/L] | CR ([1]; AVERAGE of 3 animals) [µmol/L] | ALT ([1]; individual animal) | AST ([1]; individual animal) | BUN ([1]; individual animal) | CR ([1]; individual animal) | Partition of TG-like prodrug into the micellar phase [2] | Intestinal digestion (rate) in bile-pancreatic juice [3] | Amount of MG derivative generated ([3]; Sprague-Dawley, rat, 3 h) [%] | DTX released [4] [%] | Ka, fold increase in comparison with the DTX solution [5] [fold] | Tumor inhibition [6] | Cytotoxicity (IC50 values) ([7]; 48 h) [µg/mL] | Cytotoxicity (IC50 values) ([7]; 72 h) [µg/mL] | Cytotoxicity (IC50 values) ([8]; 48 h) [µg/mL] | Cytotoxicity (IC50 values) ([8]; 72 h) [µg/mL]
1 | CC(=O)O[C@@]12CO[C@@H]1C[C@H](O)[C@@]1(C)C(=O)[C@H](O)C3=C(C)[C@@H](OC(=O)[C@H](O)[C@@H](NC(=O)OC(C)(C)C)c4ccccc4)C[C@@](O)([C@@H](OC(=O)c4ccccc4)[C@H]21)C3(C)C [DTX i.g.] | 41.6037 | 150.819 | 8.409 | 62.3087 | 57.9809 U/L and 28.6275 U/L and 38.2028 U/L | 129.269 U/L and 163.103 U/L and 160.084 U/L | 8.8262 mmol/L and 7.2013 mmol/L and 9.1982 mmol/L | 51.2097 µmol/L and 66.2585 µmol/L and 69.4579 µmol/L | – | – | – | – | – | – | – | – | – | –
2 | CCCCCCCCCCCCCCCC(=O)OCC(COC(=O)CCCCCCCCCCCCCCC)OC(=O)C(CCC(=O)O[C@@H](C(=O)O[C@H]1C[C@@]2(O)[C@@H](OC(=O)c3ccccc3)[C@@H]3[C@]4(OC(C)=O)CO[C@@H]4C[C@H](O)[C@@]3(C)C(=O)[C@H](O)C(=C1C)C2(C)C)[C@@H](NC(=O)OC(C)(C)C)c1ccccc1)OC(=O)C(C)(C)C (stereo partly shown) [DTX‐5C(Piv)‐TG] | – | – | – | – | – | – | – | – | about 40.2% | poorest intestinal digestion rate | 74 | 10 | 1.15 | – | – | – | – | –
3 | CCCCCCCCCCCCCCCC(=O)OCC(COC(=O)CCCCCCCCCCCCCCC)OC(=O)CCCC(=O)O[C@@H](C(=O)O[C@H]1C[C@@]2(O)[C@@H](OC(=O)c3ccccc3)[C@@H]3[C@]4(OC(C)=O)CO[C@@H]4C[C@H](O)[C@@]3(C)C(=O)[C@H](O)C(=C1C)C2(C)C)[C@@H](NC(=O)OC(C)(C)C)c1ccccc1 [DTX‐5C‐TG] | – | – | – | – | – | – | – | – | – | – | – | – | 1.91 | effective tumor inhibition | 0.3571 | 0.1569 | 0.2265 | 0.0882
